Assay results from patent publication US20150148320A1, “COSMETIC USE OF SALICYLIC ACID DERIVATIVES” (Avon Products, Inc., priority 2013, published 2015).

Key:
[1] = target: T1, recombinant human (rh) KLK5 (Homo sapiens, UniProt Q9Y337); assay: Enzymatic activity of Kallikrein 5 (KLK5), fluorogenic peptide substrate Boc-V-P-R-AMC; type: biochemical
T1 construct: purchased R&D Systems 1108-SE
T1 sequence (Q9Y337 23-293): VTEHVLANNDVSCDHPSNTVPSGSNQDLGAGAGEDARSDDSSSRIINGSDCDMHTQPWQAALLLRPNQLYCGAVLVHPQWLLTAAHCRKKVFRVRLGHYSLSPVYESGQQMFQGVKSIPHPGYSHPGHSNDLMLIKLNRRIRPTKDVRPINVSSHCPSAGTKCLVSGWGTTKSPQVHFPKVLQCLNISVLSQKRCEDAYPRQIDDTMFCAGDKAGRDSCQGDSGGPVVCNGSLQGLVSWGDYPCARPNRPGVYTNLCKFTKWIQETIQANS
Experimental: Compound 1 was assayed for enzymatic activity of Kallikrein 5 (KLK5) as follows, and its activity compared to that of salicylic acid. The KLK5 activity of compound 1 was calculated as a percentage of KLK5 activity relative to salicylic acid. The KLK5 activity of compound 1 was about 165% relative to the KLK5 activity of salicylic acid.
In the stratum corneum, skin's outermost layer, cell-to-cell cohesion depends primarily on proteins known as the corneodesmosomes. During skin remodeling and renewal dead cells are shed from the skin surface by the action of native proteases that break down the corneodesmosomes. […] Hypothetically, up-regulation of the activities of these proteases using different active candidates could be utilized to increase the rate of shedding of dead skin, thus providing a natural means for skin exfoliation. To this end, the enzymatic activity of a member of the KLK family, recombinant human (rh) KLK5, was monitored following pre-incubation with actives and measuring the rate of peptide bond cleavage of a synthetic substrate.
Enzymatic activity of KLK5 was measured by incubating recombinant human (rh) KLK5 protease (R&D Systems, Cat No. 1108-SE) with a specific fluorogenic peptide substrate Boc-V-P-R-AMC (R& D Systems, Cat No. ES011). The substrate is conjugated to a quenched fluorescent group. […] Increase in fluorescence reading indicates an increase in rhKLK5 activity. […] After 60 seconds of incubation, fluorescence was measured at 340 nm (Excitation wavelength) and 485 nm (Emission wavelength) every 1 minute for 7 minutes. Rate (kinetics) of enzyme activity was calculated as follows: Rate of enzyme activity=Change of fluorescent reading (after background correction) Change of reaction time (min) Percent change of activity due to a test compound was calculated by comparing rate of enzyme activity in the presence of the test compound to that of a control without the test compound and statistical significance was calculated using a t-test. […]

[2] = Skin PAMPA parallel artificial membrane penetration assay; type: in vitro ADME; conditions: 50 μM, donor pH 4.25, acceptor pH 7.4, two hours incubation
Experimental: Several salicylic acid derivatives were assessed for their ability to penetrate skin. Each of the compounds was formulated in an aqueous buffer, with a final pH of 4.25 at a concentration of 50 μM. The skin permeability of the compounds was measured using a high throughput transdermal permeability model, the parallel artificial membrane penetration assay (Skin PAMPA™), which uses a skin mimetic artificial membrane that simulates the barrier properties of the strateum corneum.
Briefly, the Skin PAMPA™ assay is a sandwich assay that utilizes two 96-well plate assemblies, one of which acts as the acceptor chambers (comprising a buffer), and one of which acts as the donor chambers (comprising a buffer and the compound to be tested). […] After an incubation period, the donor and acceptor chambers are analyzed for the amount of compound present.
In the current experiments, the acceptor chamber included an acceptor solution made from Prisma™ HT buffer solution (Pion, Inc.) that was adjusted to a pH of 7.4±0.05 using 1.0 M NaOH, and the donor chamber included a donor solution made from Prisma™ HT buffer solution (Pion, Inc.) that was adjusted to a pH of 4.25±0.05 using 1.0 M NaOH. […] Effective permeability was then calculated by the same method as Sinko et al., Eur. J. Pharm. […]

CCOC(=O)c1cc2c(c(C(=O)OCC)c1O)CCCC2 [Compound 1]
stimulation of KLK5 (in words) ([1]; rhKLK5): very potent stimulator of KLK5
KLK5 activity as a percentage relative to the KLK5 activity of salicylic acid ([1]; rhKLK5, rate of enzyme activity relative to salicylic acid): about 165%
KLK5 activity as compared to salicylic acid (in words) ([1]; rhKLK5, FIG. 1 asterisk): superior KLK5 activity
skin permeability as compared to salicylic acid (in words) [2]: higher permeability
